According to article doi:10.1101/2025.10.23.684218v2, “Development of a dual chemical probe for the USP16 and HDAC6 zinc-finger ubiquitin-binding domain” (biorxiv, 2025):
Where two headings read alike, the source gives them in different places.

Columns and labels:
[1] = biological target: T1, HDAC6-UBD (HDAC6 1109-1215) (Homo sapiens, UniProt Q9UBN7); experiment: SPR, steady state; format: binding
T1 sequence (Q9UBN7 1109-1215): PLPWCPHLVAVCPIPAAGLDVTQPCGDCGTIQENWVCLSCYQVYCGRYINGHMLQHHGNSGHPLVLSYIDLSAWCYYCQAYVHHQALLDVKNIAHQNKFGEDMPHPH

BRAP = biological target: T2, BRAP (Homo sapiens, UniProt Q7Z569); experiment: biochemical; parameters: SPR, steady-state binding to immobilised biotinylated UBD proteins
T2 construct: UBD, residues 304-390
T2 sequence (Q7Z569 1-592): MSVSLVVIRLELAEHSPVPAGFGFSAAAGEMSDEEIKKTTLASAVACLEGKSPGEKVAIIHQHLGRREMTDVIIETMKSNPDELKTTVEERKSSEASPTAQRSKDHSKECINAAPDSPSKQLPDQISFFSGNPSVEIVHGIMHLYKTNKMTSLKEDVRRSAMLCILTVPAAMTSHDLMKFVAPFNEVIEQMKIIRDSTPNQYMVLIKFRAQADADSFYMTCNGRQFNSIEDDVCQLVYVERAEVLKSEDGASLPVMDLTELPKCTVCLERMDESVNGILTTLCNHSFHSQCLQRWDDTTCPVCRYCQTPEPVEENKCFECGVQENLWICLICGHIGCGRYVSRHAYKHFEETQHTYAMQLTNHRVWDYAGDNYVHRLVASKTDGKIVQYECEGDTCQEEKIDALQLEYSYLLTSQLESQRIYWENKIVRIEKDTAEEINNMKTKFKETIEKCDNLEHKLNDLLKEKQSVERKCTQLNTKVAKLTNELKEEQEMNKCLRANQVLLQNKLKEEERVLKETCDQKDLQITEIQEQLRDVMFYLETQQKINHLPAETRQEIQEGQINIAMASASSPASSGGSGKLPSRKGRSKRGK

USP33 = biological target: T3, USP33 (Homo sapiens, UniProt Q8TEY7); experiment: biochemical; parameters: SPR, steady-state binding to immobilised biotinylated UBD proteins
T3 construct: UBD, residues 29-134
T3 sequence (Q8TEY7 1-942): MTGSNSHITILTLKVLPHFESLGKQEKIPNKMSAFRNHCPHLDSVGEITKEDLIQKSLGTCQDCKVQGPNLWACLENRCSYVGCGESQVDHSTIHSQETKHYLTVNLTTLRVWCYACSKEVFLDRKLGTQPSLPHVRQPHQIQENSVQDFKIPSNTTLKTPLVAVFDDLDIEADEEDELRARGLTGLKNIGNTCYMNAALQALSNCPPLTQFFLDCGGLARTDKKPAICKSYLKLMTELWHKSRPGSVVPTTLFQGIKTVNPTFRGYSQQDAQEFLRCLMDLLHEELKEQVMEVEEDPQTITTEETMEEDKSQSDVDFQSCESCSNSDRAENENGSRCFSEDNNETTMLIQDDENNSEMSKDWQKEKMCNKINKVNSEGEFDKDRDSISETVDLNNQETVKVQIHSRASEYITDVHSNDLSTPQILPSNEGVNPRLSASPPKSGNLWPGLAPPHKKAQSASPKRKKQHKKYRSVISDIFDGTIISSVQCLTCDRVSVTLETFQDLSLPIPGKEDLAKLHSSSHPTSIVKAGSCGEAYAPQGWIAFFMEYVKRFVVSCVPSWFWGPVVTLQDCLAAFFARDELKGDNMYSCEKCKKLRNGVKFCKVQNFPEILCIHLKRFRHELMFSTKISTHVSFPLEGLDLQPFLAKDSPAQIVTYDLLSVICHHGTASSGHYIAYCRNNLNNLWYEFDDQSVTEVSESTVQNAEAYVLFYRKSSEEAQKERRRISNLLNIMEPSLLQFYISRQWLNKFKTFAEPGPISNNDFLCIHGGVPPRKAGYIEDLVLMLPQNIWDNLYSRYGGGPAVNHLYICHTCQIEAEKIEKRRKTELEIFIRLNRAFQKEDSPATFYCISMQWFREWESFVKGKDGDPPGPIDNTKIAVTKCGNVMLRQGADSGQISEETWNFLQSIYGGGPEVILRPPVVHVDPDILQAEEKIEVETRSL

USP49 = biological target: T4, USP49 (Homo sapiens, UniProt Q70CQ1); experiment: biochemical; parameters: SPR, steady-state binding to immobilised biotinylated UBD proteins
T4 construct: UBD, residues 1-115
T4 sequence (Q70CQ1 1-688): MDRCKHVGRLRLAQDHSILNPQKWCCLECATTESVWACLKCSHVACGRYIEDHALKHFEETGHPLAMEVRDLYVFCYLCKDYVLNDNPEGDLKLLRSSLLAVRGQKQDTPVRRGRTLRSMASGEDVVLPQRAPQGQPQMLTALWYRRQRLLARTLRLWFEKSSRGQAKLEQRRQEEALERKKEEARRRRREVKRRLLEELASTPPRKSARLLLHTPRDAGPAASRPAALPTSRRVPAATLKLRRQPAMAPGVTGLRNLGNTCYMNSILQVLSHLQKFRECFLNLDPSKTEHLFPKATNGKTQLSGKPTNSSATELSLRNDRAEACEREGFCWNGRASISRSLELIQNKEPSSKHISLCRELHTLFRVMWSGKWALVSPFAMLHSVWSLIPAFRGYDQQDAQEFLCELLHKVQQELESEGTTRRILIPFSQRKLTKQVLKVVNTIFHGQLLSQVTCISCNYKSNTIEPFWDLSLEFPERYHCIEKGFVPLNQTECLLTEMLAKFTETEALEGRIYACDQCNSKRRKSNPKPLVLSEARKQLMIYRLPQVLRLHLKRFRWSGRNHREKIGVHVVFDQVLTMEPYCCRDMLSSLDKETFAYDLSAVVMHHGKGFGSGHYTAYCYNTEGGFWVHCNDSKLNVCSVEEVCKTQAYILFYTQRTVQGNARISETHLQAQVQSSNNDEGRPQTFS

[2] = read-out: Probe KD (nM) SGC-UBD1031
[3] = read-out: Negative Control KD (nM) SGC-UBD1031N

Row | Structure (SMILES) | Kd [1] [µM] | Kd (BRAP; [2]) [nM] | Kd (USP33; [2]) [nM] | Kd (USP49; [2]) [nM] | Kd (BRAP; [3]) [nM] | Kd (USP33; [3]) [nM] | Kd (USP49; [3]) [nM]
1 | C[C@H](NC(=O)Cn1c(CCC(=O)O)nc2c(Cl)cccc2c1=O)c1c(F)cccc1F [compound 15, (S)-3-(8-chloro-3-(2-((1-(2,6-difluorophenyl)ethyl)amino)-2-oxoethyl)-4-oxo-3,4-dihydroquinazolin-2-yl)propanoic acid] | 0.016 | > 10000 | > 10000 | 7500 ± 870 |  |  | 
2 | C[C@@H](NC(=O)Cn1c(CCC(=O)O)nc2c(Cl)cccc2c1=O)c1c(F)cccc1F [compound 16, (R)-3-(8-chloro-3-(2-((1-(2,6-difluorophenyl)ethyl)amino)-2-oxoethyl)-4-oxo-3,4-dihydroquinazolin-2-yl)propanoic acid] | > 5 |  |  |  | > 10000 | > 10000 | 6700 ± 2100
